Measurements: patent US8871756B2 (Hoffmann-La Roche Inc., priority 2011, dated 2014)

Tested on: RSV Long strain
Experiment: Viral cytopathic effect (CPE) assay, anti-RSV activity
Assay type: cell-based, Respiratory Syncytial Virus
Details: human respiratory syncytial virus, 144 h, RSV Long strain (ATCC); cell viability after 6 days, Cell Counting kit-8
Procedure, shortened: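 Cells (6×10^3/well, DMEM with 10% FBS) were infected next day with RSV Long strain, at a dose giving approximately 80–90% CPE, alongside serial half-log compound dilutions. Viability was read after 6 days by CCK-8 absorbance at 450 nm (reference 630 nm), and EC50 was derived from it.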

| SMILES | EC50 [µM] |
| --- | --- |
| NCC1(CNc2cc(N3CCS(=O)(=O)c4ccccc4C3)nc3ccc(CO)cc23)COC1 [Example 106, [4-({[3-(Aminomethyl)oxetan-3-yl]methyl}amino)-2-(1,1-dioxido-2,3-dihydro-1,4-benzothiazepin-4(5H)-yl)quinolin-6-yl]methanol] | 0.002 |
| [2H]C([2H])([2H])c1ccc2nc(N3CC[S+]([O-])c4ccccc4C3)nc(NCC3(CN)COC3)c2c1 (centres unmarked) [Example 107, N-{[3-(Aminomethyl)oxetan-3-yl]methyl}-6-trideuteriomethyl-2-(1-oxido-2,3-dihydro-1,4-benzothiazepin-4(5H)-yl)quinazolin-4-amine] | 0.001 |
| NCC1(CNc2nc(N3CC[S+]([O-])c4ccccc4C3)nc3ccc(C(=O)O)cc23)COC1 (centres unmarked) [Example 108-1, 4-({[3-(Aminomethyl)oxetan-3-yl]methyl}amino)-2-(1-oxido-2,3-dihydro-1,4-benzothiazepin-4(5H)-yl)quinazoline-6-carboxylic acid] | 0.488 |
| Cc1ccc2nc(N3CCC(F)(F)c4ccccc4C3)cc(NCCOCCN)c2c1 [Example 110-2, N-[2-(2-Aminoethoxy)ethyl]-2-(5,5-difluoro-1,3,4,5-tetrahydro-2H-2-benzazepin-2-yl)-6-methylquinolin-4-amine] | 2.61 |
| Cc1ccc2nc(N3CCC(F)(F)c4ccccc4C3)cc(NCC(O)CN)c2c1 (centres unmarked) [Example 110-4, 1-Amino-3-{[2-(5,5-difluoro-1,3,4,5-tetrahydro-2H-2-benzazepin-2-yl)-6-methylquinolin-4-yl]amino}propan-2-ol] | 0.06 |
| Cc1ccc2nc(N3CCC(F)(F)c4ccccc4C3)cc(NCC(O)CO)c2c1 (centres unmarked) [Example 110-5, 3-{[2-(5,5-Difluoro-1,3,4,5-tetrahydro-2H-2-benzazepin-2-yl)-6-methylquinolin-4-yl]amino}propane-1,2-diol] | 1.66 |
| Cc1ccc2nc(N3CCC(F)(F)c4ccccc4C3)cc(NCCCO)c2c1 [Example 110-6, 3-{[2-(5,5-Difluoro-1,3,4,5-tetrahydro-2H-2-benzazepin-2-yl)-6-methylquinolin-4-yl]amino}propan-1-ol] | 4.28 |
| Cc1ccc2nc(N3CCC(F)(F)c4ccccc4C3)cc(NCC(C)N)c2c1 (centres unmarked) [Example 110-8, N^˜1^˜-[2-(5,5-Difluoro-1,3,4,5-tetrahydro-2H-2-benzazepin-2-yl)-6-methylquinolin-4-yl]propane-1,2-diamine] | 0.081 |
| Cc1ccc2nc(N3CCC(F)(F)c4ccccc4C3)cc(NC3CCNC3)c2c1 (centres unmarked) [Example 110-10] | 0.099 |
| Cc1ccc2nc(N3CCC(F)(F)c4ccccc4C3)cc(NCC(C)(C)N)c2c1 [Example 110-12, N˜1˜-[2-(5,5-Difluoro-1,3,4,5-tetrahydro-2H-2-benzazepin-2-yl)-6-methylquinolin-4-yl]-2-methylpropane-1,2-diamine] | 0.072 |
| Cc1ccc2nc(N3CCC(F)(F)c4ccccc4C3)cc(NCC3(CN)COC3)c2c1 [Example 110-15, N-{[3-(Aminomethyl)oxetan-3-yl]methyl}-2-(5,5-difluoro-1,3,4,5-tetrahydro-2H-2-benzazepin-2-yl)-6-methylquinolin-4-amine] | 0.004 |
| Cc1ccc2nc(N3CCC(F)(F)c4ccccc4C3)cc(N(C)CCN)c2c1 [Example 111-3, N-[2-(5,5-Difluoro-1,3,4,5-tetrahydro-2H-2-benzazepin-2-yl)-6-methylquinolin-4-yl]-N-methylethane-1,2-diamine] | 0.0768 |
| Cc1ccc2nc(N3CCC(F)(F)c4ccccc4C3)cc(N3CCC(N)C3)c2c1 (centres unmarked) [Example 111-4, 1-[2-(5,5-Difluoro-1,3,4,5-tetrahydro-2H-2-benzazepin-2-yl)-6-methylquinolin-4-yl]pyrrolidin-3-amine] | 0.066 |
| Cc1ccc2nc(N3CCC(F)(F)c4ccccc4C3)cc(NCCO)c2c1 [Example 111-5, 2-{[2-(5,5-Difluoro-1,3,4,5-tetrahydro-2H-2-benzazepin-2-yl)-6-methylquinolin-4-yl]amino}ethanol] | 1.64 |
| Cc1ccc2nc(N3CCC(F)(F)c4ccccc4C3)cc(NC3CCCC(N)C3)c2c1 (centres unmarked) [Example 111-7, N-[2-(5,5-Difluoro-1,3,4,5-tetrahydro-2H-2-benzazepin-2-yl)-6-methylquinolin-4-yl]cyclohexane-1,3-diamine] | 0.873 |
| Cc1ccc2nc(N3CCC(F)(F)c4ccccc4C3)cc(NCCN(C)C)c2c1 [Example 111-8, N′-[2-(5,5-Difluoro-1,3,4,5-tetrahydro-2H-2-benzazepin-2-yl)-6-methylquinolin-4-yl]-N,N-dimethylethane-1,2-diamine] | 0.283 |
| Cc1ccc2nc(N3CCC(F)(F)c4ccccc4C3)cc(NCCCN)c2c1 [Example 111-9, N-[2-(5,5-Difluoro-1,3,4,5-tetrahydro-2H-2-benzazepin-2-yl)-6-methylquinolin-4-yl]propane-1,3-diamine] | 0.047 |
| Cc1ccc2nc(N3CCC(F)(F)c4ccccc4C3)cc(NCCCCN)c2c1 [Example 111-10, N-[2-(5,5-Difluoro-1,3,4,5-tetrahydro-2H-2-benzazepin-2-yl)-6-methylquinolin-4-yl]butane-1,4-diamine] | 0.107 |
| CO/N=C1\CCN(c2cc(NCC3(N)COC3)c3cc(C)ccc3n2)Cc2ccccc21 [Example 112-2, N-[(3-Aminooxetan-3-yl)methyl]-2-[(5E)-5-(methoxyimino)-1,3,4,5-tetrahydro-2H-2-benzazepin-2-yl]-6-methylquinolin-4-amine] | 0.092 |
| Cc1ccc2nc(N3CCC(=O)c4ccccc4C3)nc(NCC3(N)COC3)c2c1 [Example 114-1, 2-(4-{[(3-Aminooxetan-3-yl)methyl]amino}-6-methylquinazolin-2-yl)-1,2,3,4-tetrahydro-5H-2-benzazepin-5-one] | 0.007 |

More lines, in order of falling EC50, values ahead:

| EC50 [µM] | SMILES |
| --- | --- |
| 6.75 | Cc1ccc2nc(N3CCC(F)(F)c4ccccc4C3)cc(N(CCO)CCO)c2c1 [Example 110-11, 2,2′-{[2-(5,5-Difluoro-1,3,4,5-tetrahydro-2H-2-benzazepin-2-yl)-6-methylquinolin-4-yl]imino}diethanol] |
| 3.74 | Cc1ccc2nc(N3CCC(F)(F)c4ccccc4C3)cc(NCC3(CN)CS(=O)(=O)C3)c2c1 [Example 112-1, N-{[3-(Aminomethyl)-1,1-dioxidothietan-3-yl]methyl}-2-(5,5-difluoro-1,3,4,5-tetrahydro-2H-2-benzazepin-2-yl)-6-methylquinolin-4-amine] |
| 3.68 | Cc1ccc2nc(N3CCC(F)(F)c4ccccc4C3)cc(N3CCN(C)CC3)c2c1 [Example 110-13, 5,5-Difluoro-2-[6-methyl-4-(4-methylpiperazin-1-yl)quinolin-2-yl]-2,3,4,5-tetrahydro-1H-2-benzazepine] |
| 2.47 | NCC1(CNc2nc(N3CCS(=O)(=O)c4ccccc4C3)nc3ccc(C(=O)O)cc23)COC1 [Example 108-2, 4-({[3-(Aminomethyl)oxetan-3-yl]methyl}amino)-2-(1,1-dioxido-2,3-dihydro-1,4-benzothiazepin-4(5H)-yl)quinazoline-6-carboxylic acid] |
| 2.01 | Cc1ccc2nc(N3CCC(F)(F)c4ccccc4C3)cc(N3CCNCC3)c2c1 [Example 111-1, 5,5-Difluoro-2-[6-methyl-4-(piperazin-1-yl)quinolin-2-yl]-2,3,4,5-tetrahydro-1H-2-benzazepine] |
| 1.37 | Cc1ccc2nc(N3CCC(F)(F)c4ccccc4C3)cc(N[C@H]3CC[C@@H](N)CC3)c2c1 [Example 110-9, cis-N-[2-(5,5-Difluoro-1,3,4,5-tetrahydro-2H-2-benzazepin-2-yl)-6-methylquinolin-4-yl]cyclohexane-1,4-diamine] |
| 1.34 | Cc1ccc2nc(N3CCC(F)(F)c4ccccc4C3)cc(N3CCCNCC3)c2c1 [Example 111-2, 2-[4-(1,4-Diazepan-1-yl)-6-methylquinolin-2-yl]-5,5-difluoro-2,3,4,5-tetrahydro-1H-2-benzazepine] |
| 1.18 | Cc1ccc2nc(N3CCC(F)(F)c4ccccc4C3)cc(NCCN3CCNCC3)c2c1 [Example 110-7, 2-(5,5-Difluoro-1,3,4,5-tetrahydro-2H-2-benzazepin-2-yl)-6-methyl-N-[2-(piperazin-1-yl)ethyl]quinolin-4-amine] |
| 0.733 | Cc1ccc2nc(N3CCC(F)(F)c4ccccc4C3)cc(NCCS(=O)(=O)CCN)c2c1 [Example 113, N-{2-[(2-Aminoethyl)sulfonyl]ethyl}-2-(5,5-difluoro-1,3,4,5-tetrahydro-2H-2-benzazepin-2-yl)-6-methylquinolin-4-amine] |
| 0.648 | CCNC(=O)Nc1cc(N2CCC(F)(F)c3ccccc3C2)nc2ccc(C)cc12 [Example 110-14] |
| 0.161 | CNCCNc1cc(N2CCC(F)(F)c3ccccc3C2)nc2ccc(C)cc12 [Example 110-3, N-[2-(5,5-Difluoro-1,3,4,5-tetrahydro-2H-2-benzazepin-2-yl)-6-methylquinolin-4-yl]-N′-methylethane-1,2-diamine] |
| 0.062 | Cc1ccc2nc(N3CCC(F)(F)c4ccccc4C3)cc(NCCN)c2c1 [Example 111-6, N-[2-(5,5-Difluoro-1,3,4,5-tetrahydro-2H-2-benzazepin-2-yl)-6-methylquinolin-4-yl]ethane-1,2-diamine] |
| 0.017 | Cc1ccc2nc(N3CCC(F)(F)c4ccccc4C3)cc(NCC3(N)COC3)c2c1 [Example 110-1, N-[(3-Aminooxetan-3-yl)methyl]-2-(5,5-difluoro-1,3,4,5-tetrahydro-2H-2-benzazepin-2-yl)-6-methylquinolin-4-amine] |
| 0.0015 | NCC1(CNc2nc(N3CCS(=O)(=O)c4ccccc4C3)nc3ccc(CO)cc23)COC1 [Example 109-2, [4-({[3-(Aminomethyl)oxetan-3-yl]methyl}amino)-2-(1,1-dioxido-2,3-dihydro-1,4-benzothiazepin-4(5H)-yl)quinazolin-6-yl]methanol] |
| 0.00088 | NCC1(CNc2nc(N3CC[S+]([O-])c4ccccc4C3)nc3ccc(CO)cc23)COC1 (centres unmarked) [Example 109-1, [4-({[3-(Aminomethyl)oxetan-3-yl]methyl}amino)-2-(1-oxido-2,3-dihydro-1,4-benzothiazepin-4(5H)-yl)quinazolin-6-yl]methanol] |
